The values below come from patent US20250129103A1, “METHODS FOR TREATMENT OF CANCER” (Frontier Medicines Corporation, priority 2022, published 2025).

A short description of data set [1]: Determination of logD (1-octanol / phosphate buffer pH 7.4). The following applies: for logD: 1-octanol/phosphate buffer, pH 7.4, pH 7.4, 1-octanol/phosphate buffer, read-out: Log D, pH 7.4. It is filed as physicochemical. In a few lines: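 Shake-flask partition between 1-octanol and 100 mM phosphate buffer pH 7.4, each phase presaturated with the other overnight. Tubes shaken 1 h at 800 rpm, room temperature, then centrifuged. Both phases quantified by LCMS and logD calculated from the ratio.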

Data set [2] has as its target KRAS G12C (GMPPNP-loaded) and PI3Ka (Ras-binding domain) interaction (Homo sapiens (Human), UniProt P01116, C118S/C51S/C80L/G12C). The data set can be described thus: Inhibition of KRAS G12C and PI3Ka binding (AlphaScreen). As to conditions: KRAS G12C loaded with GMPPNP, PI3Ka RBD, 2 hours preincubation; read-out: PI3K RBD K-Ras IC50. Here is the method:
The AlphaScreen technology was used to determine IC50S for compound inhibition of KRAS G12C (present as the Cys-light (C51S, C80L and C118S), truncated version comprising amino acids 1-169) and PI3Ka interaction. Compounds were diluted in 100% DMSO and each compound concentration was spotted at 200 nl/well onto low volume, white 384 well plates. The KRAS G12C contained a biotin-AviTag and the PI3Ka, as Ras-binding domain (amino acids 157-300, RBD), was His-tagged. KRAS G12C was preloaded with the GTP analogue Guanosine 5′-[β,γ-imido]triphosphate (GMPPNP). The KRAS G12C was diluted in 25 mM Hepes, pH 7.4, 150 mM NaCl, 5 mM MgCl2, 0.01% TritonX-100 and 10 μM GMPPNP and added at 10 ul/well to compound-spotted plates resulting in a DMSO concentration of 2%. Plates were incubated for 2 hours. A mixture of RBD and the AlphaScreen streptavidin donor and nickel chelate acceptor beads diluted in 25 mM Hepes, pH 7.4, 150 mM NaCl, 5 mM MgCl2, 0.01% TritonX-100 and 2% DMSO was then added at 10 ul/well and incubated for 60-90 minutes before the samples were read for emission at 570 nm after excitation of the donor beads at 680 nm. All incubations were performed at room temperature. The final top compound concentration was 50 μM with 1:3 titrations for 10-point dose response curves. Final assay conditions were 1.5 nM KRAS G12C, 100 nM RBD, 1.25 ug/ml of AlphaScreen donor beads and 10 μg/ml AlphaLISA acceptor beads. IC50s were determined using nonlinear regression fit of [inhibitor] vs. response (4 parameters). […]

Data set [3] has as its target KRAS G12C (GMPPNP-loaded) and cRAF (Ras-binding domain) interaction (Homo sapiens (Human), UniProt P01116, C118S/C51S/C80L/G12C). The data set can be described thus: Inhibition of KRAS G12C and cRAF binding (AlphaScreen). As to conditions: KRAS G12C loaded with GMPPNP, cRaf RBD, 2 hours preincubation; read-out: Raf-1 RBD K-Ras IC50. The gist of the method:
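GMPPNP-loaded KRAS G12C in 25 mM Hepes pH 7.4, 150 mM NaCl, 5 mM MgCl2, 0.01% Triton X-100, 10 μM GMPPNP, 2% DMSO, preincubated with compound 2 h at room temperature. cRAF RBD plus AlphaScreen beads then added for 60-90 min; signal read at 570 nm.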

Data set [4] in a line: Determination of kinetic solubility (pH 7.4). In kind it is physicochemical. As to conditions: phosphate buffer, pH 7.4, aqueous buffer, kinetic from dmso stock, 50 mM phosphate buffer pH 7.4, read-out: Ksol, pH 7.4. In a few lines:
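Sample mixed with 50 mM phosphate buffer, pH 7.4, vortexed, then shaken 2 h at room temperature and centrifuged. Filtrate analysed by HPLC-UV and LC-MS/MS, with solubility read from peak areas against a standard calibration curve.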

Converted amounts (≈) assume the structure as drawn.

On to “2-((S)-4-(7-(8-chloro-7-fluoronaphthalen-1-yl)-8-fluoro-2-(((2R,7aS)-2-fluorotetrahydro-1H-pyrrolizin-7a(5H)-yl)methoxy)pyrido[4,3-d]pyrimidin-4-yl)-1-((E)-4-((3aR,6aS)-tetrahydro-1H-furo[3,4-c]pyrrol-5(3H)-yl)but-2-enoyl)piperazin-2-yl)acetonitrile [Example 84]”, for which the “Log D, pH 7.4” value in data set [1] (pH 7.4, 1-octanol/phosphate buffer) is reported as 2.97. Further, the IC50 in data set [2] and in data set [3] was under 10 nM throughout.
With `Cc1cc(N)nc(C2Cc3nc(OC[C@@]45CCCN4C[C@H](F)C5)nc(N4CCN(C(=O)/C=C/C5CCN5C)[C@@H](CC#N)C4)c3CC2C)c1C(F)(F)F` (mixture of isomers) [Example 68, 2-((2S)-4-(7-(6-amino-4-methyl-3-(trifluoromethyl)pyridin-2-yl)-2-(((2R,7aS)-2-fluorohexahydro-1H-pyrrolizin-7a-yl)methoxy)-6-methyl-5,6,7,8-tetrahydroquinazolin-4-yl)-1-((E)-3-(1-methylazetidin-2-yl)acryloyl)piperazin-2-yl)acetonitrile], in data set [1], the logD turned out to be 3.09. Further, the IC50 in data set [2] and in data set [3] was under 10 nM throughout.
As for `Cc1noc(/C=C/C(=O)N2CCN(c3nc(OC[C@@]45CCCN4C[C@H](F)C5)nc4c3CCN(c3cccc5cccc(Cl)c35)C4)C[C@@H]2CC#N)n1` [Compound 2, 2-((S)-4-(7-(8-chloronaphthalen-1-yl)-2-(((2R,7aS)-2-fluorohexahydro-1H-pyrrolizin-7a-yl)methoxy)-5,6,7,8-tetrahydropyrido[3,4-d]pyrimidin-4-yl)-1-((E)-3-(3-methyl-1,2,4-oxadiazol-5-yl)acryloyl)piperazin-2-yl)acetonitrile], the logD in data set [1] came to 4.42. The IC50 in data set [2] was under 10 nM; in data set [3], 10 to 100 nM.
Consider `N#CC[C@H]1CN(c2nc(OC[C@@]34CCCN3C[C@H](F)C4)nc3c2CCN(c2cccc4cccc(Cl)c24)C3)CCN1C(=O)/C=C/c1nc(C(F)F)no1` [Compound 18], for which the solubility kinetic at 2 h in data set [4] was 0.01 µg/mL (≈ 0.0134 µM). Further, in data set [1], the logD stood at 4.78. The IC50 in data set [2] and in data set [3] was under 10 nM throughout.
For the compound `N#CC[C@H]1CN(c2nc(OCC34CCCN3CCC4)nc3c2CCN(c2cccc4cccc(Cl)c24)C3)CCN1C(=O)/C=C/c1nc(C(F)F)no1` [Compound 19], the solubility kinetic at 2 h in data set [4] amounted to 24.4 µg/mL (≈ 33.5 µM). For the same compound, the logD in data set [1] stood at 3.33. Moreover, the IC50 in data set [2] and in data set [3] was under 10 nM in each case.
Consider `N#CC[C@H]1CN(c2nc(OCC34CCCN3CCC4)nc3c2CCN(c2cccc4cccc(Cl)c24)C3)CCN1C(=O)/C=C/c1nc(C2CC2)no1` [Compound 23], for which the solubility kinetic at 2 h in data set [4] is 12.5 µg/mL (≈ 17.3 µM). In data set [1], the logD was determined as 3.38. The IC50 in data set [2] and in data set [3] was 10 to 100 nM in each case.
For the compound `CCc1noc(/C=C/C(=O)N2CCN(c3nc(OCC45CCCN4CCC5)nc4c3CCN(c3cccc5cccc(Cl)c35)C4)C[C@@H]2CC#N)n1` [Compound 25], in data set [4], the solubility kinetic at 2 h came to 0.01 µg/mL (≈ 0.0141 µM). Moreover, in data set [1], the logD worked out at 4.9. In addition, the IC50 in data set [2] is at least 500 nM; in data set [3] it was over 500 nM.
Consider `CCc1noc(/C=C/C(=O)N2CCN(c3nc(OCC45CCCN4CCC5)nc4c(F)c(-c5cccc6cccc(Cl)c56)ncc34)C[C@@H]2CC#N)n1` [Compound 26], for which the solubility kinetic at 2 h in data set [4] was 80.2 µg/mL (≈ 111 µM). For the same compound, the logD in data set [1] is 2.66. The IC50 in data set [2] and in data set [3] was 100 to 500 nM in each case.
Turning to `CC(C)(C)c1noc(/C=C/C(=O)N2CCN(c3nc(OCC45CCCN4CCC5)nc4c3CCN(c3cccc5cccc(Cl)c35)C4)C[C@@H]2CC#N)n1` [Compound 30], the solubility kinetic at 2 h in data set [4] stood at 2.33 µg/mL (≈ 3.16 µM). In data set [1], the logD was found to be 3.09. Moreover, the IC50 in data set [2] and in data set [3] was 10 to 100 nM in each case.
On to `CC(C)(C)c1noc(/C=C/C(=O)N2CCN(c3nc(OC[C@@]45CCCN4C[C@H](F)C5)nc4c3CCN(c3cccc5cccc(Cl)c35)C4)C[C@@H]2CC#N)n1` [Compound 31], for which, in data set [4], the solubility kinetic at 2 h amounted to 0.01 µg/mL (≈ 0.0133 µM). For the same compound, in data set [1], the logD is 4.35. Moreover, the IC50 in data set [2] and in data set [3] was 10 to 100 nM each time.
